In US4632940A, “N-substituted 1-(4'-alkylsulfonylphenyl)-2-amino-1,3-propanediols, pharmaceutical compositions containing them, having local anesthetic activity” (Zambon S.p.A., priority 1983, dated 1986):
Where a name gives a salt, the structure may show the parent alone.

Assays:
Type in all cases: in vivo
[1] = system: cutaneous reflex after stimulation (guinea-pig back); assay: Local anesthetic activity, intradermal infiltration in the back of guinea-pig (Bulbring and Wayda); conditions: drug concentration inhibiting 50% of the occurence of the cutaneous reflex, 95% c.l. in parentheses
mouse = assay: in vivo; conditions: for LD50: mouse, i.v., administered as hydrochloride, observed for 24 hrs, 1440 min; for Therapeutic Index LD50/ED50: ratio of LD50 (mouse, i.v.) to ED50 (guinea pig local infiltration)
Excerpt: (§1) Toxicity study in mouse has been performed by intravenous administration.

in vivo = conditions: in vivo, iv
Excerpt: as §1

## CCN(CC)CC(=O)Nc1c(C)cccc1C [Lidocaine, reference compound]
[1]
  LOCAL […] ED50 (c.l. 95%): 0.49 (0.34-0.71) mM

## CC(COc1ccccc1)N[C@@H](CO)[C@@H](O)c1ccc(S(C)(=O)=O)cc1 (relative stereo) [Z. 1403, (1S,2S)-1-(4-methylsulfonylphenyl)-2-(1-methyl-2-phenoxyethylamino)-1,3-propanediol]
[1]
  LOCAL ANESTHETIC ACTIVITY ED50 (c.l. 95%): 0.049 mM
mouse
  LD50: 0.80 mmols/kg/iv
  Therapeutic Index LD50/ED50: 16

## CC(COc1ccccc1)N[C@@H](CO)[C@@H](O)c1ccc(S(C)(=O)=O)cc1 (relative stereo) [Z. 1402, (1S,2S)-1-(4-methylsulfonylphenyl)-2-(1-methyl-2-phenoxyethylamino)-1,3-propanediol]
[1]
  LOCAL ANESTHETIC ACTIVITY ED50 (c.l. 95%): 0.075 (0.05-0.1) mM
mouse
  LD50: 0.30 mmols/kg/iv
  Therapeutic Index LD50/ED50: 4

## CCN(CC)CCOC(=O)c1ccc(N)cc1 [Procaine, reference compound]
[1]
  LOCAL ANESTHETIC ACTIVITY ED50 (c.l. 95%): 2.3 (1.7-3.1) mM

## CS(=O)(=O)c1ccc([C@@H](O)[C@@H](CO)NCCC(c2ccccc2)c2ccccc2)cc1 [Z. 1395, (1R,2R)-1-(4-methylsulfonylphenyl)-2-(3,3-diphenylpropylamino)-1,3-propanediol maleate acid]
[1]
  LOCAL ANESTHETIC ACTIVITY ED50 (c.l. 95%): 0.73 (0.57-0.94) mM

## CS(=O)(=O)c1ccc([C@H](O)[C@H](CO)NCCC(c2ccccc2)c2ccccc2)cc1 [Z. 1396]
[1]
  LOCAL ANESTHETIC ACTIVITY ED50 (c.l. 95%): 0.36 (0.21-0.60) mM
In vivo; ratio of LD50 (mouse, i.v.) to ED50 (guinea pig local infiltration), read-out: Therapeutic Index LD50/ED50
  selectivity ratio: 0.5
In vivo; mouse, administered as hydrochloride, observed for 24 hrs
  LD50 at 24 h: 160 µmol/kg
